{"source": "patent US20220160712A1", "about": "“METHODS OF TREATING RHEUMATOID ARTHRITIS AND FOR PREDICTING THE RESPONSE TO METHOTREXATE” (CHAN ZUCKERBERG BIOHUB, INC., priority 2020, published 2022)", "key": {"[1]": {"system": "human gut microbiota", "experiment": "MTX treatment of gnotobiotic mice colonized with human stool; 16S-seq and qPCR of gut microbiota", "type": "in vivo", "settings": "Donor 3 mice, oral MTX 50 mg/kg with or without equimolar folic acid"}, "[2]": {"system": "B. theta", "experiment": "In vitro bacterial rescue study with folic acid", "type": "cell-based, Bacteroides thetaiotaomicron", "settings": "in the presence and absence of MTX; folic acid 0-250 μg/ml", "protocol": "(§1) As described in the ur in vitro bacterial growth studies, 48-hour overnight cultures were grown in an anaerobic chamber in liquid BHI+ for the following isolates: Bacteroides vulgatus, Bacteroides thetaiotaomicron, Clostridium innocuum and Clostridium symbiosum. Each subculture was diluted down to an OD600 of 0.08-0.1, which was then further diluted 100-fold, and then used to inoculate a 96-well microtiter plate with 2-fold serial dilutions of MTX (Sigma, Cat #M9929) concentrations ranging from 0-450 μg/ml (0-990 μM) along the columns (1-10) and 2-fold serial dilutions of folic acid (Fischer Scientific, BP25195) ranging from 0-250 μg/ml (0-566 μM) along the rows (A-H). Each plate included media and growth controls. […]\n(§2) Growth parameters (carrying capacity, time to mid-exponential and growth rate) were calculated in R using GrowthCurveR (Sprouffske, K., and Wagner, A. (2016), BMC Bioinformatics 17, 1726) (v0.2.1). […] For rescue studies, as above, growth parameters (carrying capacity, time to mid-exponential, growth rate, and area under the curve) were calculated in R using GrowthCurveR (Sprouffske and Wagner, 2016) (v0.2.1). Four isolates were evaluated with varying sensitivity to MTX (B. thetaiotaomicron, B. vulgatus, C. innocuum and C. symbiosum). […] Growth curves at 9 concentrations of MTX tested against 7 concentrations of folic acid were measured. […]"}, "[3]": {"system": "B. vulgatus", "experiment": "In vitro bacterial rescue study with folic acid", "type": "cell-based, Bacteroides vulgatus", "settings": "folic acid 0-250 μg/ml; MTX 0-450 μg/ml", "protocol": "as §1, §2"}, "[4]": {"system": "C. innocuum", "experiment": "In vitro bacterial rescue study with folic acid", "type": "cell-based, Clostridium innocuum", "settings": "folic acid 0-250 μg/ml; MTX 0-450 μg/ml", "protocol": "as §1, §2"}, "[5]": {"system": "C. symbiosum", "experiment": "In vitro bacterial rescue study with folic acid", "type": "cell-based, Clostridium symbiosum", "settings": "MTX resistant isolate; high doses of MTX", "protocol": "as §1, §2"}, "[6]": {"system": "B. vulgatus, B. thetaiotaomicron, C. innocuum, and C. symbiosum", "experiment": "In vitro bacterial rescue study with leucovorin", "type": "cell-based"}}}
{"compound": "Nc1nc2ncc(CNc3ccc(C(=O)N[C@@H](CCC(=O)O)C(=O)O)cc3)nc2c(=O)[nH]1", "note": "[folic acid]", "values": [{"measurement": "rescue of the gut microbiota from MTX by co-administered folic acid (α- or β-diversity between groups)", "setting": "[1]", "value": "Neither route nor rescue resulted in a significant difference"}, {"measurement": "rescue of the gut microbiota from MTX by co-administered folic acid (α- or β-diversity between groups)", "setting": "[1]; listed as Folic acid", "value": "did not markedly rescue the gut microbiota"}, {"measurement": "growth in response to folic acid", "setting": "[2]", "value": "improved in a dose-dependent manner"}, {"measurement": "dose-dependent increases in growth with folic acid", "setting": "[3]", "value": "only evident in the presence of MTX"}, {"measurement": "dose-dependent increases in growth with folic acid", "setting": "[4]", "value": "only evident in the presence of MTX"}, {"measurement": "effect of folic acid on MTX sensitivity", "setting": "[5]", "value": "sensitized to MTX"}]}
{"compound": "Nc1nc2c(c(=O)[nH]1)N(C=O)C(CNc1ccc(C(=O)N[C@@H](CCC(=O)O)C(=O)O)cc1)CN2", "note": "(some centres unmarked) [leucovorin]", "values": [{"measurement": "effect of leucovorin on growth of the tested isolates", "setting": "[6]; leucovorin 0-125 μg/ml (FIG. 4D and 4E)", "value": "improved growth of 3 of the 4 tested isolates"}, {"measurement": "dose-dependent effects of leucovorin on growth in the presence of MTX", "setting": "[6]; leucovorin 0-125 μg/ml, linear regression (FIG. 4F)", "value": "did not have any significant dose-dependent effects"}]}
